# Data as given in publication PMC11637191, “The pH-dependence of efflux ratios determined with bidirectional transport assays across cellular monolayers” (International Journal of Pharmaceutics: X, 2024).
# Where “and” joins values, the source holds several entries; their conditions need not be identical. Equal values may be shown once. Read-outs that look alike come from different tables or passages of the source.
# Experiments:
# [1] = Calculation of neutral fraction (fn)
# [2] = basic, cited from earlier work
# P-gp (MDR1) [3] = assay: in vitro; settings: dog
# in vitro = settings: dog
# P-gp (MDR1) [4] = assay: Comparison of Papp,B-A with and without inhibitor in MDCK-MDR1 cells (own and literature data); settings: dog, MDCK-MDR1, pH 7.4, with P-gp inhibitor (elacridar 2 µM in this study's P0 assays), Papp, inhibitor, This study; with inhibitor; pH 7.4 iso-method
# MDCK-MDR1 cells [5] = assay: as above; settings: pH 7.4 iso-method
# Caco-2 cells = assay: Model fits of pH-gradient Caco-2 data of Neuhoff et al. (2003)
# Source text: Error bars represent standard deviation.
# Fit Parameters A: Neutral-Neutral B: Ionic-Ionic C: Neutral-Ionic […]
# (§1) X Measurement of paracellular transport […]
# (§2) assess its relative contribution to overall flux, it is necessary to quantify paracellular transport in some way. An approximation of paracellular transport can be mathematically calculated as desc ribed in […]
# (§3) and cell type can influence and complicate the predictions, leading to uncertainties. H owever, it can also be experimentally measured provided that it can be assured that the P app would be dominated by the contribution of P para . […]
# compounds. In order to ensure paracellular dominance, 2 µM elacridar was used to inhibit potential P-gp facilitated efflux, and the transport buffer was set to a pH that would severely restrict the neutral
# MDCK-MDR1 cells [6] = settings: pH 7.4 iso-method, cited from earlier work; for Papp, inhibitor: with inhibitor; for Papp, B⟶A: without inhibitor
# P-gp (MDR1) [7] = assay: Measurement of paracellular transport (Ppara) in MDCK-MDR1 cells with and without P-gp inhibitors; type: in vitro ADME, canine; settings: dog, pH 7.4, one replicate
# Source text: (§4) In initial fits, we used experimentally obtained values for Ppara , determined by measuring the Papp of the relevant compound at a pH value where paracellular transport was expected to dominate. Since the compounds in this study are P-gp substrates, elacridar was also used to inhibit P-gp. Under these conditions, the measured Papp is expected to be a measure of Ppara . […]
# as §1, §2, §3
# (§5) compounds. In order to ensure paracellular dominance, 2 µM elacridar was used to inhibit potential P-gp facilitated efflux, and the transport buffer was set to a pH that would severely restrict the neutral […]
# (§6) Table S13: P app values and measured logP para for basic and acidic marker compounds. P app values are the mean of three timepoints per replicate, for a total of three replicates (n = 3) ± standard […]
# (§7) Compound pH Papp, A⟶B logP para Recovery fn
# (§8) In light of the uncertainties in predicting P para , it was presumed more apt to measure P para for each compound individually in parallel with the pH dependence experiments. As described in Section 4.3 of the main text, experiments were initially performed for each tested compound with inhibitor and appropriate pH values (similar to those performed for Table S12) in an attempt to ensure the dominance of paracellular transport. These values could then be used as a direct measure for P para for each compound that could be fed to the model for its individual fit. […]
# (§9) affecting P para and/or the measurement of it, we measured the P app of more commonly-used markers for paracellular transport with and without inhibitor. The transport of these rather hydrophilic compounds is known to be dominated by the paracellular route. Furthermore, for our MDCK- MDR1 […]
# (§10) efflux is not expected to play a role. As such, the addition of inhibitor in this case is purely to evaluate if the P app changes when it is present.
# [8] = as above; type: in vitro ADME, canine; settings: dog; for Papp: MDCK-MDR1, with elacridar 2 µM
# Source text: as §4, §1, §2, §3, §5, §6, §7, §8, §9, §10
# [9] = Neutral-Neutral assumption, gradient pH method, basolateral pH 7.4, fit of Neuhoff et al. 2003 data
# [10] = ref Troutman and Thakker (2003)
smiles,measurement,setting,value
NS(=O)(=O)c1cc(C(=O)O)c(NCc2ccco2)cc1Cl [Furosemide],fn,[1]; neutral fraction at pH 9,0.0%
CC(C)(C)NCC(O)COc1ccc(NC(=O)NC2CCCCC2)cc1 (stereo not drawn) [Talinolol],fn,[1]; neutral fraction at pH 8,5%
same,pKa,[2]; no reference given,9.4
C[C@H]1O[C@@H](O[C@H]2[C@@H](O)C[C@H](O[C@H]3[C@@H](O)C[C@H](O[C@H]4CC[C@@]5(C)[C@H](CC[C@@H]6[C@@H]5C[C@@H](O)[C@]5(C)[C@@H](C7=CC(=O)OC7)CC[C@]65O)C4)O[C@@H]3C)O[C@@H]2C)C[C@H](O)[C@@H]1O [Digoxin],Papp,"P-gp (MDR1) [3]; MDCK-MDR1, pH 5",0.53 ± 0.15 ×10⁻⁶ cm/s
same,Papp B→A,"P-gp (MDR1) [3]; MDCK-MDR1, pH 5",6.12 ± 1.9 ×10⁻⁶ cm/s
same,Papp,"P-gp (MDR1) [3]; MDCK-MDR1, pH 6",0.51 ± 0.12 ×10⁻⁶ cm/s
same,Papp B→A,"P-gp (MDR1) [3]; MDCK-MDR1, pH 6",16.3 ± 0.8 ×10⁻⁶ cm/s
same,Papp,"P-gp (MDR1) [3]; MDCK-MDR1, pH 7.4",0.59 ± 0.11 ×10⁻⁶ cm/s
same,Papp B→A,"P-gp (MDR1) [3]; MDCK-MDR1, pH 7.4",17.8 ± 2.8 ×10⁻⁶ cm/s
same,Papp,"P-gp (MDR1) [3]; MDCK-MDR1, pH 8",0.72 ± 0.13 ×10⁻⁶ cm/s
same,Papp B→A,"P-gp (MDR1) [3]; MDCK-MDR1, pH 8",16.3 ± 2 ×10⁻⁶ cm/s
same,Papp,"P-gp (MDR1) [3]; MDCK-MDR1, pH 9",1.9 ± 0.32 ×10⁻⁶ cm/s
same,Papp B→A,"P-gp (MDR1) [3]; MDCK-MDR1, pH 9",7.63 ± 1.73 ×10⁻⁶ cm/s
same,recovery,"in vitro; MDCK-MDR1, pH 5",71 to 116%
same,recovery,"in vitro; MDCK-MDR1, pH 6",74 to 88%
same,recovery,"in vitro; MDCK-MDR1, pH 7.4",73 to 83%
same,recovery,"in vitro; MDCK-MDR1, pH 8",73 to 76%
same,recovery,"in vitro; MDCK-MDR1, pH 9",75 to 82%
same,Papp,P-gp (MDR1) [4],2.53 ×10⁻⁶ cm/s
same,Factor difference,"MDCK-MDR1 cells [5]; This study, Papp,B⟶A vs Papp with inhibitor",7
same,Factor difference,"MDCK-MDR1 cells [5]; calculated from literature Papp,B⟶A and Papp with inhibitor",10 and 6 and 5 and 7
same,"Pb,app active (fitted)",Caco-2 cells; [9],5.16e-05 cm/s
same,Ppara (fitted),Caco-2 cells; [9],5.22e-06 cm/s
same,P0,"Caco-2 cells; human, Caco-2",2.69-06 cm/s
same,"Ppgp,app active (fitted)","Caco-2 cells; human, Caco-2, pH 7.4",6.39e-05 cm/s
same,Pb active in Caco-2 fit compared with MDCK results (iso-pH method),Caco-2 cells; neutral-neutral fit,one order of magnitude higher
same,fn,[1]; neutral fraction at pH 7.4,100%
same,"logPapp, A⟶B","MDCK-II-MDR1 cells; pH 5, iso-pH method",-6.27 P in cm/s
same,"logPapp, B⟶A","MDCK-II-MDR1 cells; pH 5, iso-pH method",-5.21 P in cm/s
same,"logPapp, A⟶B","MDCK-II-MDR1 cells; pH 6, iso-pH method",-6.29 P in cm/s
same,"logPapp, B⟶A","MDCK-II-MDR1 cells; pH 6, iso-pH method",-4.79 P in cm/s
same,"logPapp, A⟶B","MDCK-II-MDR1 cells; pH 7.4, iso-pH method",-6.23 P in cm/s
same,"logPapp, B⟶A","MDCK-II-MDR1 cells; pH 7.4, iso-pH method",-4.75 P in cm/s
same,"logPapp, A⟶B","MDCK-II-MDR1 cells; pH 8, iso-pH method",-6.14 P in cm/s
same,"logPapp, B⟶A","MDCK-II-MDR1 cells; pH 8, iso-pH method",-4.79 P in cm/s
same,"logPapp, A⟶B","MDCK-II-MDR1 cells; pH 9, iso-pH method",-5.72 P in cm/s
same,"logPapp, B⟶A","MDCK-II-MDR1 cells; pH 9, iso-pH method",-5.12 P in cm/s
same,"Papp, inhibitor",MDCK-MDR1 cells [6]; ref Chang et al. (2006),2.04e-06 cm/s
same,"Papp, inhibitor",MDCK-MDR1 cells [6]; ref Taub et al. (2005),1.39e-06 cm/s
same,"Papp, inhibitor",MDCK-MDR1 cells [6]; [10],7.5e-06 cm/s
same,"Papp, inhibitor",MDCK-MDR1 cells [6]; ref Wang et al. (2005),1e-06 cm/s
same,"Papp, B⟶A",MDCK-MDR1 cells [6]; ref Chang et al. (2006),1.52e-05 cm/s
same,"Papp, B⟶A",MDCK-MDR1 cells [6]; ref Taub et al. (2005),8.15e-06 cm/s
same,"Papp, B⟶A",MDCK-MDR1 cells [6]; [10],3.57e-05 cm/s
same,"Papp, B⟶A",MDCK-MDR1 cells [6]; ref Wang et al. (2005),9.75e-06 cm/s
NS(=O)(=O)c1cc2c(cc1Cl)N=CNS2(=O)=O [Chlorothiazide],Papp,"P-gp (MDR1) [7]; MDCK-MDR1, with cyclosporin A 10 µM, A → B + cyclosporin-A (10 μM)",0.7 ×10⁻⁶ cm/s
same,Papp,"P-gp (MDR1) [7]; MDCK-MDR1, with elacridar 2 µM, A → B + elacridar (2 μM)",0.9 ×10⁻⁶ cm/s
same,Papp,"P-gp (MDR1) [7]; MDCK-MDR1, with verapamil 100 µM, A → B + verapamil (100 μM)",1.4 ± 0.1 ×10⁻⁶ cm/s
same,Papp,"P-gp (MDR1) [7]; MDCK-MDR1, A → B, no inhibitor",0.2 ×10⁻⁶ cm/s
same,recovery,"[8]; MDCK-MDR1, pH 7.4, A⟶B, no inhibitor, pH 7.4",125%
same,recovery,"[8]; MDCK-MDR1, pH 7.4, B⟶A, no inhibitor, pH 7.4",104%
same,recovery,"[8]; MDCK-MDR1, pH 7.4, with cyclosporin A 10 µM, A⟶B + cyclosporin-A, pH 7.4",108%
same,recovery,"[8]; MDCK-MDR1, pH 7.4, with elacridar 2 µM, A⟶B + elacridar, pH 7.4",100%
same,recovery,"[8]; MDCK-MDR1, pH 7.4, with verapamil 100 µM, A⟶B + verapamil, pH 7.4",96%
same,recovery,"[8]; MDCK-MDR1, pH 9, with elacridar 2 µM, + 2 µM elacridar, pH 9, n = 3 (Table S13)",105%
same,Papp,"[8]; + 2 µM elacridar, pH 9, three replicates (n = 3) (Table S13)",1.7 ± 0.7 ×10⁻⁶ cm/s
same,fn,[1]; neutral fraction at pH 7.4,16.5%
same,fn,[1]; neutral fraction at pH 9,0.8%
COc1cccc2c1C(=O)c1c(O)c3c(c(O)c1C2=O)C[C@@](O)(C(=O)CO)C[C@@H]3O[C@H]1C[C@H](N)[C@H](O)[C@H](C)O1 [Doxorubicin],recovery,"[8]; MDCK-MDR1, pH 5, with elacridar 2 µM, + 2 µM elacridar, pH 5, n = 3 (Table S13)",130%
same,Papp,"[8]; + 2 µM elacridar, pH 5, three replicates (n = 3) (Table S13)",0.4 ± 0.1 ×10⁻⁶ cm/s
same,Papp,"P-gp (MDR1) [3]; MDCK-MDR1, pH 5",0.77 ± 0.26 ×10⁻⁶ cm/s
same,Papp A→B,"P-gp (MDR1) [3]; MDCK-MDR1, pH 5",0.457 ×10⁻⁶ cm/s
same,Papp B→A,"P-gp (MDR1) [3]; MDCK-MDR1, pH 5",0.46 ± 0.25 ×10⁻⁶ cm/s
same,Papp,"P-gp (MDR1) [3]; MDCK-MDR1, pH 6",0.16 ± 0.03 ×10⁻⁶ cm/s
same,Papp B→A,"P-gp (MDR1) [3]; MDCK-MDR1, pH 6",0.23 ± 0.08 ×10⁻⁶ cm/s
same,Papp,"P-gp (MDR1) [3]; MDCK-MDR1, pH 7",0.13 ± 0.03 ×10⁻⁶ cm/s
same,Papp B→A,"P-gp (MDR1) [3]; MDCK-MDR1, pH 7",0.78 ± 0.36 ×10⁻⁶ cm/s
same,Papp,"P-gp (MDR1) [3]; MDCK-MDR1, pH 8",0.17 ± 0.05 ×10⁻⁶ cm/s
same,Papp B→A,"P-gp (MDR1) [3]; MDCK-MDR1, pH 8",4.4 ± 0.29 ×10⁻⁶ cm/s
same,recovery,"in vitro; MDCK-MDR1, pH 5",94 to 100%
same,recovery,"in vitro; MDCK-MDR1, pH 6",90 to 96%
same,recovery,"in vitro; MDCK-MDR1, pH 7",88 to 93%
same,recovery,"in vitro; MDCK-MDR1, pH 8",64 to 71%
same,fn,[1]; neutral fraction at pH 5,0.0%
same,"logPapp, B⟶A","MDCK-II-MDR1 cells; pH 6, iso-pH method",-6.64 P in cm/s
same,"logPapp, B⟶A","MDCK-II-MDR1 cells; pH 7, iso-pH method",-6.11 P in cm/s
same,"logPapp, B⟶A","MDCK-II-MDR1 cells; pH 8, iso-pH method",-5.36 P in cm/s
same,pKa,"[2]; ref Advanced Chemistry Development, 2020",9.56
